Target: human IRAK4 (Homo sapiens (Human), UniProt Q9NWZ3)
Assay: IRAK4 kinase inhibition, Transcreener fluorescence polarization (ADP detection)
Type: biochemical
Details: recombinant full-length His6-IRAK4 1.25 nM; 125 μM ATP; 125 μM peptide; 90 min; Ki computed using ATP Km 642 μM
Description: Compounds were assayed for inhibition of human IRAK4 and IRAK1 catalytic activity using recombinant enzyme produced from insect cells. Full-length IRAK4 protein, carrying an N-terminal His6-Tag, was obtained from Life Technologies (Carlsbad, Calif., USA). The IRAK1 construct was produced internally and was comprised of IRAK1 residues Arg194 to Ser712, preceded by an NH2-terminal His6 tag and the coding sequence for glutathione-S-transferase.
Kinase activities were assayed using the Transcreener-Fluorecescence polarization platform (BelBrook Labs, Madison, Wis., USA) that measures amounts of the reaction product, ADP.
384 well assay plates spotted with compound received 4 μl of a 2× substrate (ATP+peptide) mix in reaction buffer, followed by 4 μl of 2× enzyme diluted in reaction buffer.

Chain of human IRAK4 (Q9NWZ3 whole entry): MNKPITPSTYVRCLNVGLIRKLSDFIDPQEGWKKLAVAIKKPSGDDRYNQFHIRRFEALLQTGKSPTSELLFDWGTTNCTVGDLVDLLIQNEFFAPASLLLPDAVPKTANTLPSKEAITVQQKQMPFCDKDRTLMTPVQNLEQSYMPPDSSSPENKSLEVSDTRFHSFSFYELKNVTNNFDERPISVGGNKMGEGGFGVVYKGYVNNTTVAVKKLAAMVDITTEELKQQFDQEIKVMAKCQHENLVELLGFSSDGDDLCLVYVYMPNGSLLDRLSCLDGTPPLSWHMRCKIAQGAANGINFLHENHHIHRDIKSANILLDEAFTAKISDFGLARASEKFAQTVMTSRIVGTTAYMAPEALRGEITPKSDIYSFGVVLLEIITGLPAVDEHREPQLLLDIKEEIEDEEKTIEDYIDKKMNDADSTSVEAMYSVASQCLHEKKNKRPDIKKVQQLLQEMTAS

| SMILES | Ki [nM] |
| --- | --- |
| C[C@@H]1COCCN1c1nc(C(=O)Nc2cc3c(cc2N2CCOCC2)C(=O)N(C[C@@H](F)C(C)(C)O)C3)co1 (racemic) [Example 16, N-(2-((R)-2-fluoro-3-hydroxy-3-methylbutyl)-6-morpholino-1-oxoisoindolin-5-yl)-2-((R)-20-methyl-morpholino) oxazole-4-carboxamide] | 7 |
| C[C@@H](O)c1cccc(C(=O)Nc2cc3c(cc2N2CCOCC2)C(=O)N(C[C@@H](F)C(C)(C)O)C3)n1 (racemic) [Example 21, N-[6-morpholino-1-oxo-2-[rac-(2R)-2-fluoro-3-hydroxy-3-methyl-butyl]isoindolin-5-yl]-6-[rac-(1R)-1-hydroxyethyl] pyridine-2-carboxamide] | 1.7 |
| C[C@H](O)c1cccc(C(=O)Nc2cc3c(cc2N2CCOCC2)C(=O)N(C[C@@H](F)C(C)(C)O)C3)n1 (racemic) [Example 22, N-[6-morpholino-1-oxo-2-[rac-(2R)-2-fluoro-3-hydroxy-3-methyl-butyl]isoindolin-5-yl]-6-[rac-(1S)-1-hydroxyethyl] pyridine-2-carboxamide] | 9.2 |
| CO[C@H](C)c1cccc(C(=O)Nc2cc3c(cc2N2CCOCC2)C(=O)N(C[C@@H](F)C(C)(C)O)C3)n1 (racemic) [Example 23, N-[6-morpholino-1-oxo-2-[rac-(2R)-2-fluoro-3-hydroxy-3-methyl-butyl]isoindolin-5-yl]-6-[rac-(1R)-1-methoxyethyl] pyridine-2-carboxamide] | 12 |
| CO[C@@H](C)c1cccc(C(=O)Nc2cc3c(cc2N2CCOCC2)C(=O)N(C[C@@H](F)C(C)(C)O)C3)n1 (racemic) [Example 24, N-[6-morpholino-1-oxo-2-[rac-(2R)-2-fluoro-3-hydroxy-3-methyl-butyl]isoindolin-5-yl]-6-[rac-(1S)-1-methoxyethyl] pyridine-2-carboxamide] | 33 |
| CC(C)(O)[C@H](F)CN1Cc2cc(NC(=O)c3cccc(CC(F)(F)F)n3)c(N3CCOCC3)cc2C1=O (racemic) [Example 25, N-[6-morpholino-1-oxo-2-[rac-(2R)-2-fluoro-3-hydroxy-3-methyl-butyl]isoindolin-5-yl]-6-(2,2,2-trifluoroethyl)pyridine-2-carboxamide] | 6.5 |
| CC(C)(O)[C@H](F)CN1Cc2cc(NC(=O)c3cnc4cccnn34)c(N3CCOCC3)cc2C1=O [Example 1, (R)—N-(2-(2-Fluoro-3-hydroxy-3-methylbutyl)-6-morpholino-1-oxoisoindolin-5-yl)imidazo[1,2-b]pyridazine-3-carboxamide] | 5.1 |
| CC(C)(O)[C@H](F)CN1Cc2cc(NC(=O)c3ccc[nH]c3=O)c(N3CCOCC3)cc2C1=O [Example 3, (R)-N-(2-(2-Fluoro-3-hydroxy-3-methylbutyl)-6-morpholino-1-oxoisoindolin-5-yl)-2-oxo-1,2-dihydropyridine-3-carboxamide] | 8.2 |
| Cn1cccc(C(=O)Nc2cc3c(cc2N2CCOCC2)C(=O)N(C[C@@H](F)C(C)(C)O)C3)c1=O [Example 4, (R)-N-(2-(2-Fluoro-3-hydroxy-3-methylbutyl)-6-morpholino-1-oxoisoindolin-5-yl)-1-methyl-2-oxo-1,2-dihydropyridine-3-carboxamide] | 8 |
| CCn1cccc(C(=O)Nc2cc3c(cc2N2CCOCC2)C(=O)N(C[C@@H](F)C(C)(C)O)C3)c1=O [Example 5, (R)-1-Ethyl-N-(2-(2-fluoro-3-hydroxy-3-methylbutyl)-6-morpholino-1-oxoisoindolin-5-yl)-2-oxo-1,2-dihydropyridine-3-carboxamide] | 5.6 |
| C[C@H]1COCCN1c1nc(C(=O)Nc2cc3c(cc2N2CCOCC2)C(=O)N(C[C@@H](F)C(C)(C)O)C3)co1 [Example 10, N-[2-[(2R)-2-Fluoro-3-hydroxy-3-methyl-butyl]-6-morpholino-1-oxo-isoindolin-5-yl]-2-[(3S)-3-methylmorpholin-4-yl]oxazole-4-carboxamide] | 7.6 |
| CC(C)Oc1cccc(C(=O)Nc2cc3c(cc2N(C)C)C(=O)N(C[C@@H](F)C(C)(C)O)C3)n1 [Example 11, N-[6-(Dimethylamino)-2-[(2R)-2-fluoro-3-hydroxy-3-methyl-butyl]-1-oxo-isoindolin-5-yl]-6-isopropoxy-pyridine-2-carboxamide] | 21 |
| CN(C)c1cc2c(cc1NC(=O)c1cccc(OC3CCNC3)n1)CN(C[C@@H](F)C(C)(C)O)C2=O (stereo partly drawn) [Example 13, N-[6-(Dimethylamino)-2-[(2R)-2-fluoro-3-hydroxy-3-methyl-butyl]-1-oxo-isoindolin-5-yl]-6-pyrrolidin-3-yloxy-pyridine-2-carboxamide] | 5.8 |
| Cc1ccc(-c2cc3c(cc2NC(=O)c2cnc(C)o2)CN(C[C@@H](F)C(C)(C)O)C3=O)nc1 [Example 14, (R)-N-(2-(2-Fluoro-3-hydroxy-3-methylbutyl)-6-(5-methyl-pyridin-2-yl)-1-oxoisoindolin-5-yl)-2-methyloxazole-5-carboxamide] | 4.2 |
| CC(C)(O)[C@H](F)CN1Cc2cc(NC(=O)c3coc(N4CCOCC4)n3)c(N3CCOCC3)cc2C1=O [Example 15, (R)-N-(2-(2-Fluoro-3-hydroxy-3-methylbutyl)-6-morpholino-1-oxoisoindolin-5-yl)-2-morpholino-oxazole-4-carboxamide] | 4.6 |
| CC(C)(O)[C@H](F)CN1Cc2cc(NC(=O)c3cccc(C(F)(F)F)n3)c(N3CCOCC3)cc2C1=O [Example 17, (R)—N-(2-(2-Fluoro-3-hydroxy-3-methylbutyl)-6-morpholino-1-oxoisoindolin-5-yl)-6-(trifluoromethyl)picolinamide] | 2.5 |
| COc1cccc(C(=O)Nc2cc3c(cc2N(C)C)C(=O)N(C[C@@H](F)C(C)(C)O)C3)n1 [Example 19, N-[6-(Dimethyl-amino)-2-[(2R)-2-fluoro-3-hydroxy-3-methyl-butyl]-1-oxo-isoindolin-5-yl]-6-methoxy-pyridine-2-carboxamide] | 1.5 |
| Cn1ccn2ncc(C(=O)Nc3cc4c(cc3N3CCOCC3)C(=O)N(C[C@@H](F)C(C)(C)O)C4)c2c1=O [Example 26, N-[2-[(2R)-2-Fluoro-3-hydroxy-3-methyl-butyl]-6-morpholino-1-oxo-isoindolin-5-yl]-5-methyl-4-oxo-pyrazolo [1,5-a] pyrazine-3-carboxamide] | 47 |
| CC(C)(O)[C@H](F)CN1Cc2cc(NC(=O)c3cccc4[nH]cnc34)c(N3CCOCC3)cc2C1=O [Example 32, N-[2-[(2R)-2-Fluoro-3-hydroxy-3-methyl-butyl]-6-morpholino-1-oxo-isoindolin-5-yl]-1H-benz-imidazole-4-carboxamide] | 1.1 |
| Cn1ncc(C(=O)Nc2cc3c(cc2N2CCOCC2)C(=O)N(C[C@@H](F)C(C)(C)O)C3)c1Cl [Example 33, 5-Chloro-N-[2-[(2R)-2-fluoro-3-hydroxy-3-methyl-butyl]-6-morpholino-1-oxo-isoindolin-5-yl]-1-methyl-pyrazole-4-carboxamide] | 51 |

Reference: patent US10899772B2, “IRAK4 modulators” (priority 2017, dated 2021)
